The results in this text go back to US11279733B2, “Peptide antibiotics” (priority 2017, dated 2022).

SMILES strings stand for the structures. ≈ marks a conversion by molar mass, not a printed value. Where two headings read alike, the source gives them in different places. Positions of bridges follow the written chain, without caps; N, C: chain ends. Non-standard residues stand in square brackets, D forms with d. Residues, ends and D or L forms follow the SMILES beside them. *: point of attachment. Decanoyl(3R-OH) = CCCCCCC[C@@H](O)CC(=O)*; Phe(4-NH2) = Nc1ccc(C[C@H](N)C(=O)O)cc1; dDab = NCC[C@@H](N)C(=O)O; Dab = NCC[C@H](N)C(=O)O

One series in a line: in vitro. As to conditions: human. The method, then: Cytotoxicity of the synthesised peptides was evaluated by comparison with commercially available colistin (polymyxin E), polymyxin B (Sigma chemical Co., St. Louis, Mo., U.S.A.) and synthetic octapeptin C4 by conducting lactate dehydrogenase (LDH) assay. CC50 values calculated based on curve fitting of dose dependent inhibition of cell growth represented the cytotoxicity of the peptide. Human kidney 2 (HK2) cells were seeded as 2000 cells per well in a 384 well cell culture plate in a final volume of 20 μL in DMEM/F12 medium (Invitrogen #11330057), in which 10% of FBS was added. Cells were incubated for 24 hours at 37° C., 5% CO2 to allow cells to attach to the plates. Similar conditions were employed for HEK293 and HepG2 cytotoxicity assays.
Colistin and polymyxin B were tested from a range of 2 mM to 0.9 μM. 120 μL of the 1 mM stock solutions in water of each synthesised peptide were freeze-dried and processed for LDH assay. After freeze-dry procedure, the compounds were reconstituted into 600 μM solutions using culture media. All tested compounds were diluted from 600 μM to 0.27 μM in 3-fold dilutions. Then 20 μL of each dilution was added into 20 uL of culture medium in quadruplicate to reach the final concentrations. The cells were incubated with the compounds for 24 h at 37° C., 5% CO2. After the incubation, 5 μL of culture medium was added to 50 μL of LDH assay buffer and incubated for 1 h at room temperature. The absorbance was read at 450 nm using Polarstar. The data was then analysed by Prism software. […] Nephrotoxicity Assessment in Human Proximal Tubule Cells.

Series [1] concerns P. aeruginosa GN_043, PmxR. In a few lines:
(§1)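 Mid-log cultures grown in Mueller Hinton broth at 37° C were tested by 2-fold broth microdilution at 5×10^5 CFU/mL final. Compounds were dissolved in water and tested over a final range of 32 to 0.015 μg/mL.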

For the next series, the system named is P. aeruginosa ATCC 27853. To be noted: ATCC 27853. In outline: as §1
The next series concerns E. coli ATCC 25922. As to conditions: ATCC 25922. In outline:
as §1

Another series deals with A. baumannii ATCC 19606. As to conditions: ATCC 19606. In a few lines:
as §1

In series [2] the test system is K. pneumoniae ATCC BAA-2146, NDM-1 pos. To be noted: ATCC BAA-2146. In a few lines: as §1
The subject of the next series is K. pneumoniae ATCC 13883. As to conditions: ATCC 13883. In outline:
as §1

For series [3], the system named is K. pneumoniae ATCC 700603, MDR. To be noted: ATCC 700603. In outline: as §1

The compound `CCCCCCC[C@@H](O)CC(=O)N[C@H](CO)C(=O)N[C@H]1CCNC(=O)[C@H]([C@@H](C)O)NC(=O)[C@H](CCN)NC(=O)[C@H](CCN)NC(=O)[C@H](CC(C)C)NC(=O)[C@@H](Cc2ccccc2)NC(=O)[C@H](CCN)NC1=O` [compound 754, 3(R)OH-nC9CO-D-Ser-cyc[L-Dab-L-Dab-D-Phe-L-Leu-L-Dab-L-Dab-L-Thr]] ({Decanoyl(3R-OH)}-[dS][Dab][Dab][dF]L[Dab][Dab]T; lactam 2-C) showed a CC50 at 24 h in “in vitro” of 154 µM. Moreover, the “MIC P. aeruginosa GN_043, PmxR” value in series [1] (P. aeruginosa GN_043, PmxR) was above 32 µg/mL. For the same compound, the “MIC P. aeruginosa ATCC 27853” value with P. aeruginosa ATCC 27853 is 4 µg/mL (≈ 3.92 µM). Further, the “MIC E. coli ATCC 25922” value against E. coli ATCC 25922 was 32 µg/mL (≈ 31.4 µM). In addition, the “MIC A. baumannii ATCC 19606” value in the series on A. baumannii ATCC 19606 stood at 16 µg/mL (≈ 15.7 µM). The “MIC K. pneumoniae ATCC BAA-2146, NDM-1 pos” value in series [2] was found to be 32 µg/mL (≈ 31.4 µM). Besides, in the series with K. pneumoniae ATCC 13883, the “MIC K. pneumoniae ATCC 13883” value is 32 µg/mL (≈ 31.4 µM). In series [3], the “MIC K. pneumoniae ATCC 700603, MDR” value was 32 µg/mL (≈ 31.4 µM).

`CCCCCCC[C@@H](O)CC(=O)N[C@H](CO)C(=O)N[C@H]1CCNC(=O)[C@H](CC(C)C)NC(=O)[C@H](CCN)NC(=O)[C@H](CCN)NC(=O)[C@H](CC(C)C)NC(=O)[C@@H](Cc2ccccc2)NC(=O)[C@H](CCN)NC1=O` [compound 918, 3(R)OH-nC9CO-D-Ser-cyc[L-Dab-L-Dab-D-Phe-L-Leu-L-Dab-L-Dab-L-Leu]] ({Decanoyl(3R-OH)}-[dS][Dab][Dab][dF]L[Dab][Dab]L; lactam 2-C) showed a CC50 at 24 h in “in vitro” of 113 µM. The “MIC P. aeruginosa GN_043, PmxR” value in series [1] (Table 6, polymyxin-resistant) is above 32 µg/mL. In addition, the “MIC, P. aeruginosa ATCC 27853” value in the series with P. aeruginosa ATCC 27853 turned out to be 8 µg/mL (≈ 7.76 µM). Besides, the “MIC, E. coli ATCC 25922” value with E. coli ATCC 25922 came to 8 µg/mL (≈ 7.76 µM). The “MIC, A. baumannii ATCC 19606” value in the series on A. baumannii ATCC 19606 stood at 4 µg/mL (≈ 3.88 µM). For the same compound, in series [2], the “MIC, K. pneumoniae ATCC BAA-2146, NDM-1 pos” value is 4 µg/mL (≈ 3.88 µM). Moreover, the “MIC, K. pneumoniae ATCC 13883” value against K. pneumoniae ATCC 13883 was 8 µg/mL (≈ 7.76 µM). For the same compound, in series [3], the “MIC, K. pneumoniae ATCC 700603, MDR” value was found to be 8 µg/mL (≈ 7.76 µM).

Regarding `CCCCCCC[C@@H](O)CC(=O)N[C@H](CCN)C(=O)N[C@H]1CCNC(=O)[C@H]([C@@H](C)O)NC(=O)[C@H](Cc2ccc(N)cc2)NC(=O)[C@H](CCN)NC(=O)[C@H](CC(C)C)NC(=O)[C@@H](Cc2ccccc2)NC(=O)[C@H](CCN)NC1=O` [compound 5605, 3(R)OH-nC9CO-D-Dab-cyc[L-Dab-L-Dab-D-Phe-L-Leu-L-Dab-L-4NH2Phe-L-Thr]] ({Decanoyl(3R-OH)}-[dDab][Dab][Dab][dF]L[Dab][Phe(4-NH2)]T; lactam 2-C), the CC50 at 24 h in the series “in vitro” was determined as 115 µM. Also, the “MIC P. aeruginosa ATCC 27853” value in the series with P. aeruginosa ATCC 27853 came to 8 µg/mL (≈ 7.31 µM). Besides, the “MIC E. coli ATCC 25922” value against E. coli ATCC 25922 amounted to 16 µg/mL (≈ 14.6 µM). The “MIC K. pneumoniae ATCC BAA-2146, NDM-1 pos” value in series [2] stood at 16 µg/mL (≈ 14.6 µM). In addition, the “MIC K. pneumoniae ATCC 13883” value against K. pneumoniae ATCC 13883 was 16 µg/mL (≈ 14.6 µM). The “MIC K. pneumoniae ATCC 700603, MDR” value in series [3] was found to be 32 µg/mL (≈ 29.2 µM).

In “in vitro”, `CCCCCCC[C@@H](O)CC(=O)N[C@H](CCN)C(=O)N[C@H]1CCNC(=O)[C@H]([C@@H](C)O)NC(=O)[C@H](CCCNC(=N)N)NC(=O)[C@H](CCN)NC(=O)[C@H](CC(C)C)NC(=O)[C@@H](Cc2ccccc2)NC(=O)[C@H](CCN)NC1=O` [compound 5606, 3(R)OH-nC9CO-D-Dab-cyc[L-Dab-L-Dab-D-Phe-L-Leu-L-Dab-L-Arg-L-Thr]] ({Decanoyl(3R-OH)}-[dDab][Dab][Dab][dF]L[Dab]RT; lactam 2-C) came in with a CC50 at 24 h of 137 µM. For the same compound, the “MIC P. aeruginosa ATCC 27853” value against P. aeruginosa ATCC 27853 was 2 µg/mL (≈ 1.84 µM). The “MIC E. coli ATCC 25922” value against E. coli ATCC 25922 was above 32 µg/mL. In addition, in series [2], the “MIC K. pneumoniae ATCC BAA-2146, NDM-1 pos” value is above 32 µg/mL. In the series with K. pneumoniae ATCC 13883, the “MIC K. pneumoniae ATCC 13883” value stood at 32 µg/mL (≈ 29.4 µM). The “MIC K. pneumoniae ATCC 700603, MDR” value in series [3] stood at 16 µg/mL (≈ 14.7 µM).
